For five molecules, % activity and % of control results are on record in ChEMBL document CHEMBL5465560, “Selectivity Literature for EUbOPEN Chemogenomic Library” (2024).

Molecules are shown by their SMILES. Some results are limits rather than exact numbers.

The target of experiment [1] is Histone-lysine N-methyltransferase PRDM9 (Homo sapiens) (UniProt Q9NQV7). The experiment can be described thus: Selectivity interaction (Methyltransferase screen (Scintillation proximity assays)) EUB0000255b PRDM9.
The target of experiment [2] is T1, Protein kinase C iota type (Homo sapiens) (UniProt P41743).
T1 sequence (whole entry): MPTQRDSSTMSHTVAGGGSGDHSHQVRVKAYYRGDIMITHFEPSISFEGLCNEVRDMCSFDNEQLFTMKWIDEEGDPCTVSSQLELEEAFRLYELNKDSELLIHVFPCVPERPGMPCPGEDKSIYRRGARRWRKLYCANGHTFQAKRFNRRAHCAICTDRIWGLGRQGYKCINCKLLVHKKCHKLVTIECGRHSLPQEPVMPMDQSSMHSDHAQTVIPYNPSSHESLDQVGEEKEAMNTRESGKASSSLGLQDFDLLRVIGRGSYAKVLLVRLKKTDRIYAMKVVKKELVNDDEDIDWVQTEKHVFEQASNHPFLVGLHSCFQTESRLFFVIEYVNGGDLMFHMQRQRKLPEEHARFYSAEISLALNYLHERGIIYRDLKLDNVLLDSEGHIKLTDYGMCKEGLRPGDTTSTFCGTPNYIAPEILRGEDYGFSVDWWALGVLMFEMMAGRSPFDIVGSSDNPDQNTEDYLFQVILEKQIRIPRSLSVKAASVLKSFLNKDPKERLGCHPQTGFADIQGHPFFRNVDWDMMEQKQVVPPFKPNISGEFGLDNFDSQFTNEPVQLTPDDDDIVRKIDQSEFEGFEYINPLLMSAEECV
The experiment can be described thus: Selectivity interaction (KinomeScan (DiscoverX)) EUB0000666a PRKCI. The note with it: at 10 µM.

Experiment [3] addresses Protein kinase C delta type (Homo sapiens) (UniProt Q05655). Briefly: Selectivity interaction (KinomeScan (DiscoverX)) EUB0000045b PRKCD.
The target of experiment [4] is cAMP-dependent protein kinase catalytic subunit alpha (Homo sapiens, UniProt P17612). Briefly: Selectivity interaction (Ambit KINOMEscan and KiNATiv profiling in Jurkat cells) EUB0000090b PRKACA. The class given is cell-based. Particulars: at 1 µM.
Experiment [5] concerns the target T2, Mitogen-activated protein kinase kinase kinase 5 (Homo sapiens) (UniProt Q99683).
T2 sequence (whole entry): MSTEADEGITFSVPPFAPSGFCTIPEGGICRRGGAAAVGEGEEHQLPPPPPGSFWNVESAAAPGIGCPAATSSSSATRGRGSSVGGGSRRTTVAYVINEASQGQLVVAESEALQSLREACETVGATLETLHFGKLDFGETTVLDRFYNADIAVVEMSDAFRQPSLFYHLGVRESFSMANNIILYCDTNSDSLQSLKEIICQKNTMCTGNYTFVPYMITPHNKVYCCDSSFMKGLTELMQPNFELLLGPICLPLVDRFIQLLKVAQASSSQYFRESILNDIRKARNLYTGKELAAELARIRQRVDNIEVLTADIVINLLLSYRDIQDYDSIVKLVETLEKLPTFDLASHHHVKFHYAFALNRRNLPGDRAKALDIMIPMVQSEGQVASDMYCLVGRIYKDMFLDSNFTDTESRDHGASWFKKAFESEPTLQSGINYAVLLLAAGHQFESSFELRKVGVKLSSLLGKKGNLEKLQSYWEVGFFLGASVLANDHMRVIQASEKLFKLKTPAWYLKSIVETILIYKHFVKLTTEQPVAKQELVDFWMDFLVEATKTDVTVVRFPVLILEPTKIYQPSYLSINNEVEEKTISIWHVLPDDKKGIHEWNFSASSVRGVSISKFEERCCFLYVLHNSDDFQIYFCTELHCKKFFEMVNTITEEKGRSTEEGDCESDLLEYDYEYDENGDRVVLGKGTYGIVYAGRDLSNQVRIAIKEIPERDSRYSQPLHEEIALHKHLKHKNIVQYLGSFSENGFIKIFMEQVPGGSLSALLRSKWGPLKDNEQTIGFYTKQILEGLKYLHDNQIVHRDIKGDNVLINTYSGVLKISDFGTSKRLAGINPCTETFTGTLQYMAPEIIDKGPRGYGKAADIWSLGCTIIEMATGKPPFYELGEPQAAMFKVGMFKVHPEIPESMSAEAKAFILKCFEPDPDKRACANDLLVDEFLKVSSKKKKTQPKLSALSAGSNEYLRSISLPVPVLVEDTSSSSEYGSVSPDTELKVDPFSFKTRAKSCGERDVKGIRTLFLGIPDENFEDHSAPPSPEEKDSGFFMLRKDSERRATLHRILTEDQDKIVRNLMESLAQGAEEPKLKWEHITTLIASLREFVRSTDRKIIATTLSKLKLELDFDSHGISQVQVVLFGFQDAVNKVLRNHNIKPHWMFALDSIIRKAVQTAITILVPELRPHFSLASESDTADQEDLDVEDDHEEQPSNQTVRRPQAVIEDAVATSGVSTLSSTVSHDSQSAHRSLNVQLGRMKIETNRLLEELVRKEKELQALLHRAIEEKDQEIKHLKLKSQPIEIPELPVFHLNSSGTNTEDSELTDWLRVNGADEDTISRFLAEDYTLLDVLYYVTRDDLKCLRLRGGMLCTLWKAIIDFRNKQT
The experiment can be described thus: Selectivity interaction (KinomeScan (DiscoverX)) EUB0001049a MAP3K5. Particulars: at 1 µM.

Experiment [6] has as its target T3, Aurora kinase A (Homo sapiens) (UniProt O14965).
T3 sequence (whole entry): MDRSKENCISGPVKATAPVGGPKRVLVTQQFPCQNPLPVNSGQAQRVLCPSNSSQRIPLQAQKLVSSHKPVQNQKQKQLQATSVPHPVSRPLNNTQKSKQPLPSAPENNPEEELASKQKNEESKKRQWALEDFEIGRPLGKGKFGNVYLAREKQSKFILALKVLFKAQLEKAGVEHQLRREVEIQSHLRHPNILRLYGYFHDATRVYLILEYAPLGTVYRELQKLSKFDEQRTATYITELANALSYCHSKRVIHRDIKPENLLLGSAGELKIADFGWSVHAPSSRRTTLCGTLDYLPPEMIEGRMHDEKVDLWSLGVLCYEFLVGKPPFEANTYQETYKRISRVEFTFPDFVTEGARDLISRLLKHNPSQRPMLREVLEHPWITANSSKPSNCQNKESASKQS
The experiment can be described thus: Selectivity interaction (KinomeScan (DiscoverX)) EUB0001049a STK6. Particulars: at 1 µM.

Sequence of Protein kinase C delta type (Homo sapiens) (Q05655 whole entry, looked up): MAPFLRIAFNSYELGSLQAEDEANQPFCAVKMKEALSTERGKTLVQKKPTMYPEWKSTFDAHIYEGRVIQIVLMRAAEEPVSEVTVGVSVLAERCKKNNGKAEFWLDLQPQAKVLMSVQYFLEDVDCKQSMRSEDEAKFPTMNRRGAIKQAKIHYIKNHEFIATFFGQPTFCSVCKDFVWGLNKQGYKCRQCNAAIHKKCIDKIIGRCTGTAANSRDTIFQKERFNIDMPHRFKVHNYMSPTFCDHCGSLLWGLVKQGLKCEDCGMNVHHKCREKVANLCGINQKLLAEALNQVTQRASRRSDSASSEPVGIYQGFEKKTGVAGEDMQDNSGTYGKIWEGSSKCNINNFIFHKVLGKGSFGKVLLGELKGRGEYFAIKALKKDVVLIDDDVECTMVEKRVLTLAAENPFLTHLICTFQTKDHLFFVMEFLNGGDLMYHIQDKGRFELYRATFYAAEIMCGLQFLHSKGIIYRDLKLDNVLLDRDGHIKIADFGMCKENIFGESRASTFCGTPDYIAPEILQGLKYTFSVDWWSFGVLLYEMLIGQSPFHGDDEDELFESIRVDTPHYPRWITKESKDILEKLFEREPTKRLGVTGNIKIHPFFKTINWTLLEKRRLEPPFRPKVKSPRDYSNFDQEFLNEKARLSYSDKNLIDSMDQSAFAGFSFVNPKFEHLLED
Sequence of Histone-lysine N-methyltransferase PRDM9 (Homo sapiens) (Q9NQV7 whole entry): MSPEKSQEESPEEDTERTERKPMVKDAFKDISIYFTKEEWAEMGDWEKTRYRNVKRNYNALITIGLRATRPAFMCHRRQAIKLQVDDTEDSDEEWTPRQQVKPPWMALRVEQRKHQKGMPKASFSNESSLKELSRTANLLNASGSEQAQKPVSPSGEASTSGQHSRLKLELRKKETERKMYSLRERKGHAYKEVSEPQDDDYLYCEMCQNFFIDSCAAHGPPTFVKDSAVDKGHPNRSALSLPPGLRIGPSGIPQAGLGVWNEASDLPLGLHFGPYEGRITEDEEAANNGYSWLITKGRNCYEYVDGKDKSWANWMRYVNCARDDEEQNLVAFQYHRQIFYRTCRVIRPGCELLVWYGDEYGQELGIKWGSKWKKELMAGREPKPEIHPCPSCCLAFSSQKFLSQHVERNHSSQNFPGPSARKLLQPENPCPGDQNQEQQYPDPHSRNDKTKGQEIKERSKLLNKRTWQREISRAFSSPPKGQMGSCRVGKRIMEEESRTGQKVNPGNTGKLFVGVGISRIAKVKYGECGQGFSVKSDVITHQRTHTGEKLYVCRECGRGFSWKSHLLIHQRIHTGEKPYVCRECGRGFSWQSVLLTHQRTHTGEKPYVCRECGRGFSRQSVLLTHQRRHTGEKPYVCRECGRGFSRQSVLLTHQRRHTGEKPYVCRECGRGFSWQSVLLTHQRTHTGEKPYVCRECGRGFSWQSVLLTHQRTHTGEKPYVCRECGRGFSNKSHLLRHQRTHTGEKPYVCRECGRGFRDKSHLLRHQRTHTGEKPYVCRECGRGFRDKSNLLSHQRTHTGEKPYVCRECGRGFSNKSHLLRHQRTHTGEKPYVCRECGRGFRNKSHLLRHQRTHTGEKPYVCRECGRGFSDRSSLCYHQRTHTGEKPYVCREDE

Turning to `COCCN1CCC(c2cc(CN(C)C(=O)c3cccc(Oc4ccccc4)c3)ccn2)CC1`, the % activity was > 95% in experiment [1] (at 1 µM) and > 90% in experiment [1] (at 10 µM).
Turning to `O=C(NOC[C@H](O)CO)c1ccc(F)c(F)c1Nc1ccc(I)cc1F`, the % of control in experiment [2] came to 70%.
On to `C=CC(=O)Nc1cc(-n2c(=O)ccc3cnc4ccc(-c5ccc(NS(C)(=O)=O)cc5)cc4c32)ccc1C`, for which the % of control is 41% in experiment [3] (at 1 µM) and 91% in experiment [3] (at 10 µM).
As to `CN(C)C/C=C/C(=O)Nc1ccc(C(=O)N2CCCC(Nc3ncc(Cl)c(-c4c[nH]c5ccccc45)n3)C2)cc1` (stereo not drawn), the % of control in experiment [4] was 100%.
With `COc1cc(Nc2nc(C)cc(-c3cnn4nc(OC)ccc34)n2)cc(C(F)(F)F)c1`, the results for the % of control in experiment [5] and in experiment [6] were 80% and 93%, respectively.
